Measured values from patent US20250041389A1, “ENHANCING ABSORPTION OF DIETARY COMPOUNDS TO PROMOTE HEALTH” (ARIZONA BOARD OF REGENTS ON BEHALF OF THE UNIVERSITY OF …, priority 2023, published 2025).

Assays:
[1] = tested on: rheumatoid arthritis model; assay: Joint inflammation in a rheumatoid arthritis model; assay type: in vivo
[2] = tested on: TGF-β signaling in human breast cancer cells; assay: Inhibition of TGF-β signaling in human breast cancer cells; assay type: cell-based
ovariectomized rats = assay: Bone loss in ovariectomized rats (FDA-approved model for testing osteoporosis treatments); assay type: in vivo
[3] = tested on: breast cancer bone metastasis models; assay: Osteolysis in breast cancer bone metastasis models; assay type: in vivo

| Molecule | joint inflammation [1] | TGF-β signaling [2] | bone loss (ovariectomized rats) | bone-resorbing osteoclasts (ovariectomized rats) | osteolysis [3] |
| --- | --- | --- | --- | --- | --- |
| gingerols | prevent | – | – | – | – |
| COc1cc(/C=C/C(=O)CC(=O)/C=C/c2ccc(O)c(OC)c2)ccc1O [curcumin] | prevent | inhibit | prevent | decreasing | mitigate |
| shogaols | prevent | – | – | – | – |
